Reference: paper PMC3038857, “Using Nuclear Receptor Activity to Stratify Hepatocarcinogens” (PLoS ONE, 2011)
Like-named read-outs stand apart in the source and are kept apart here.

Key:
Mouse Liver [1] = conditions: ref ToxRefDB, cited from earlier work
Mouse Liver [2] = conditions: mouse chronic study, liver, coded 6 / Inf, ref ToxRefDB, cited from earlier work
Mouse Liver [3] = conditions: mouse chronic study, liver, coded 6 / Inf, ref ToxRefDB, cited from earlier work; remark: listed apart in the source
[4] = biological target: T1, PPARG (peroxisome proliferator-activated receptor gamma) (Homo sapiens, UniProt P37231); experiment: ATG_PPARg_TRANS: Factorial reporter gene assay (HepG2); assay type: cell-based; conditions: HepG2
T1 construct: expressed in transfected cells; host or cells: HepG2
T1 sequence (P37231 1-505): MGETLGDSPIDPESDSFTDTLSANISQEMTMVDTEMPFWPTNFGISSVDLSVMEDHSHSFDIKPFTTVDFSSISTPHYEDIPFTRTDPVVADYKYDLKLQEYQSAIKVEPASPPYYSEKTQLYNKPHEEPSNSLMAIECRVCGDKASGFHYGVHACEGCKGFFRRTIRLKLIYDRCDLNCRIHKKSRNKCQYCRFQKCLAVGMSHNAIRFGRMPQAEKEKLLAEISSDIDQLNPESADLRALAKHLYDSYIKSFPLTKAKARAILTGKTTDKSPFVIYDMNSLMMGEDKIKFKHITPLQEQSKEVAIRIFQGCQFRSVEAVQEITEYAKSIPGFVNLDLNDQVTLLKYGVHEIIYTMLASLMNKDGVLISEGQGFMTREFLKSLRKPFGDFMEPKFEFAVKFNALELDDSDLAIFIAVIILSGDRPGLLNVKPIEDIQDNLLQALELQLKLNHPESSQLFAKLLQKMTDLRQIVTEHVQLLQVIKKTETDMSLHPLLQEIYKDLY
Experimental: (§1) A multiple reporter transcription unit (MRTU) library consisting of 48 transcription factor binding sites was transfected into the HepG2 human liver hepatoma cell line. In addition to the cis-acting reporter genes (CIS), a modification of the approach was used to generate a trans-system (TRANS) with a mammalian one-hybrid assay consisting of an additional 25 MRTU library reporting the activity of nuclear receptor super-family members. […] These assays were performed by Attagene Inc. (Morrisville NC) under contract to EPA.
(§2) In addition to the cis-acting reporter genes (CIS), a modification of the approach was used to generate a trans-system (TRANS) with a mammalian one-hybrid assay consisting of an additional 25 MRTU library reporting the activity of nuclear receptor super-family members. […] Chemicals were then tested in the CIS and TRANS assays at seven concentrations starting at the MTC and followed by three-fold serial dilutions. These assays were performed by Attagene Inc. (Morrisville NC) under contract to EPA. Detailed description of the methods, data and analysis methods for this dataset will be presented in a separate publication.

CYP1A1 = experiment: CLZD_CYP1A1: Change in expression of CYP1A1 (primary human hepatocytes); assay type: cell-based; conditions: 24 hr
Experimental: (§3) This is a collection of multiplexed gene expression assays focused on Phase I and II xenobiotic metabolizing enzymes and transporters. Human primary cell cultures were treated with chemicals at 5 concentrations (0.004-40 [drawing 42] M) for 6, 24 and 48 hr. Concentration- and time-response profiles of chemicals were measured by the expression of key nuclear receptor target genes, activities of CYP1A enzymes (EROD), and cell morphology. Fourteen gene targets were monitored by quantitative nuclease protection assay including: six representative cytochrome P-450 genes, four hepatic transporters, three Phase II conjugating enzymes, and one endogenous metabolism gene involved in cholesterol synthesis. The target genes associated with nuclear receptor pathways are as follows: [drawing 43] and [drawing 44] with [drawing 45]; [drawing 46] , [drawing 47] , [drawing 48] , [drawing 49] , [drawing 50] and [drawing 51] with [drawing 52]; [drawing 53] , [drawing 54] , [drawing 55] and [drawing 56] with [drawing 57]; [drawing 58] with [drawing 59]; and [drawing 60] with [drawing 61] . Assays were run in primary human hepatocyte cultures by CellzDirect Invitrogen Inc. (Durham, NC), in collaboration with EPA.
(§4) Multiplexed Gene Expression in Human Primary Hepatocytes: This is a collection of multiplexed gene expression assays focused on Phase I and II metabolic enzymes and transporters. […] Fourteen gene targets were monitored by quantitative nuclease protection assay: six representative cytochrome P450 genes, four hepatic transporters, three Phase II conjugating enzymes, and one endogenous metabolism gene involved in cholesterol synthesis. Cells were exposed at 5 concentrations (0.004-40 µM) for 6, 24 or 48 hr. Gene targets are sentinels for five nuclear receptor signaling pathways: AhR, CAR, PXR, FXR, and PPARα. All gene are associated with nuclear receptor pathways: CYP1A1 and CYP1A2 with AHR; ABCB1, ABCG2, CYP2B6, CYP2C9, CYP2C19 and UGT1A1 with CAR; CYP3A4, GSTA2, SLCO1B1 and SULT2A1 with PXR; HMGCS2 with PPARA; and ABCB11 with FXR. […] Detailed description of the methods, data and analysis methods for this dataset will be presented in a separate publication.

CYP1A2 = experiment: CLZD_CYP1A2: Change in expression of CYP1A2 (primary human hepatocytes); assay type: cell-based; conditions: 24 hr
Experimental: as §3, §4

PXR (NR1I2) [5] = biological target: T2, PXR (NR1I2) (Homo sapiens, UniProt O75469); experiment: NVS_NR_hPXR: Human PXR Fluormone PXR (SXR) green (cell-free HTS); assay type: binding
T2 sequence (O75469 1-434): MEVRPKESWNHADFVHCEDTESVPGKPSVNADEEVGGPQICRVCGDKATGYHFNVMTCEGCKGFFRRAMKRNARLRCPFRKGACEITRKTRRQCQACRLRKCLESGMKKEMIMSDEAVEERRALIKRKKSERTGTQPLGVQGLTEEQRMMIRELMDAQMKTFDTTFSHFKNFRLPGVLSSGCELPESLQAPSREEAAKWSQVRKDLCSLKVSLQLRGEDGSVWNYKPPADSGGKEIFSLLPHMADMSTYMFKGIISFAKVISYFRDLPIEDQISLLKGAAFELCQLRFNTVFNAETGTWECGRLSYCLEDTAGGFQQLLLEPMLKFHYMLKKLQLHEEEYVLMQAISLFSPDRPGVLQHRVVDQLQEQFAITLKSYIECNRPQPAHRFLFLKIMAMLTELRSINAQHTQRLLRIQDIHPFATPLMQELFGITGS
Excerpt: These are a collection of biochemical assays measuring binding constants and enzyme inhibition values. Chemicals were initially screened at a single concentration in duplicate wells at a concentration of 10 [drawing 63] M for cytochrome P-450 assays and 25 [drawing 64] M for all others. […] These assays were run by Caliper Life Sciences (Hanover, MD) under contract to EPA. Short assay descriptions are available at: http://www.caliperls.com/products/contract-research/in-vitro/.
Cell-free HTS Assays: A collection of biochemical assays measuring binding constants and enzyme inhibition values. […] These assays were run by Caliper Life Sciences (Hanover, MD) under contract to EPA. Short assay descriptions are available at http://www.caliperls.com/products/contract-research/in-vitro/. Values for all endpoints were imported into GeneData Screener (Basel, Switzerland) and normalised to solvent controls from the same plate as the tested compounds and expressed as percent of neutral control. Concentration-response curves were fit in GeneData Screener (Basel, Switzerland) Condeseo module using the Hill equation and AC50 values were determined. […] Detailed description of the methods, data and analysis methods for this dataset are described in a separate publication.

Rat Liver [6] = conditions: ref ToxRefDB, cited from earlier work
Rat Liver [7] = conditions: ref ToxRefDB, cited from earlier work; remark: listed apart in the source
Rat Liver [8] = conditions: ref ToxRefDB, cited from earlier work; remark: listed apart in the source
PXR (NR1I2) [9] = biological target: T2, PXR (NR1I2); experiment: ATG_PXRE_CIS: Factorial reporter gene assay (HepG2); assay type: cell-based; set-up: endogenous in cells; host or cells: HepG2
Experimental: as §1, §2

CYP2B6 = experiment: CLZD_CYP2B6: Change in expression of CYP2B6 (primary human hepatocytes); assay type: cell-based; conditions: 24 hr
Experimental: as §3, §4

CYP3A4 = experiment: CLZD_CYP3A4: Change in expression of CYP3A4 (primary human hepatocytes); assay type: cell-based; conditions: 24 hr
Experimental: as §3, §4

PXR (NR1I2) [10] = biological target: T2, PXR (NR1I2); experiment: ATG_PXR_TRANS: Factorial reporter gene assay (HepG2); assay type: cell-based; set-up: endogenous in cells; host or cells: HepG2; conditions: HepG2
Experimental: as §1, §2

[11] = mouse chronic study, liver, coded 6 / Inf, code not explained in table
[12] = rat chronic study, liver, coded 6 / 0, code not explained in table
[13] = mouse chronic study, liver, any lesion, coded 6 / Inf, code not explained in the table
[14] = preneoplastic lesion, code not explained in the table
[15] = neoplastic lesion, code not explained in the table

COC(=O)NC(=S)Nc1ccccc1NC(=S)NC(=O)OC [chemical 301]
CHR_Mouse_Liver_1_AnyLesion (Mouse Liver [1]; [11]): 6
CHR_Mouse_Liver_2_PreneoplasticLesion (Mouse Liver [2]; code not explained in table): 6
CHR_Mouse_Liver_3_NeoplasticLesion (Mouse Liver [3]; code not explained in table): 6

S=C([S-])NCCNC(=S)[S-].[Zn+2] [row 207]
ATG_PPARg_TRANS [4]: 4.409
CLZD_CYP1A1_24 (CYP1A1): 5.214
CLZD_CYP1A2_24 (CYP1A2): 5.296
NVS_NR_hPXR (PXR (NR1I2) [5]): 5.59
CHR_Rat_Liver_1_AnyLesion (Rat Liver [6]; chronic rat study, liver): 0
CHR_Rat_Liver_2_PreneoplasticLesion (Rat Liver [7]; chronic rat study, liver): 0
CHR_Rat_Liver_3_NeoplasticLesion (Rat Liver [8]; chronic rat study, liver): 0
ATG_PXRE_CIS (PXR (NR1I2) [9]; HepG2): 4.387

CC(C)Nc1nc(Cl)nc(NC(C)C)n1 [r260]
ATG_PPARg_TRANS [4]: 4.481
CLZD_CYP1A1_24 (CYP1A1): 4.988
CLZD_CYP1A2_24 (CYP1A2): 5.254
CLZD_CYP2B6_24 (CYP2B6): 5.165
CLZD_CYP3A4_24 (CYP3A4): 5.248
CHR_Mouse_Liver_1_AnyLesion (Mouse Liver [1]; mouse, chronic study): 6
CHR_Rat_Liver_1_AnyLesion (Rat Liver [6]; rat, chronic study): 0
CHR_Rat_Liver_2_PreneoplasticLesion (Rat Liver [7]; rat, chronic study): 0
CHR_Rat_Liver_3_NeoplasticLesion (Rat Liver [8]; rat, chronic study): 0
ATG_PXR_TRANS (PXR (NR1I2) [10]): 4.469
ATG_PXRE_CIS (PXR (NR1I2) [9]; HepG2): 4.569

CS/C(C)=N/OC(=O)N(C)SN(C)C(=O)O/N=C(\C)SC [chemical 300]
CHR_Mouse_Liver_1_AnyLesion (Mouse Liver [1]; [11]): 6
CHR_Mouse_Liver_2_PreneoplasticLesion (Mouse Liver [2]; code not explained in table): 6
CHR_Mouse_Liver_3_NeoplasticLesion (Mouse Liver [3]; code not explained in table): 6
CHR_Rat_Liver_1_AnyLesion (Rat Liver [6]; [12]): 0
CHR_Rat_Liver_2_PreneoplasticLesion (Rat Liver [7]; [12]): 0
CHR_Rat_Liver_3_NeoplasticLesion (Rat Liver [8]; [12]): 0

Oc1ccccc1-c1ccccc1 [Dataset S3 row 5]
CHR_Mouse_Liver_1_AnyLesion (Mouse Liver [1]; [13]): 6
CHR_Mouse_Liver_2_PreneoplasticLesion (Mouse Liver [2]; [14]): 6
CHR_Mouse_Liver_3_NeoplasticLesion (Mouse Liver [3]; [15]): 6

COc1nc(C)nc(NC(=O)NS(=O)(=O)c2ccccc2CCC(F)(F)F)n1 [r267]
CLZD_CYP1A1_24 (CYP1A1): 5.399
CLZD_CYP2B6_24 (CYP2B6): 5.398
CLZD_CYP3A4_24 (CYP3A4): 5.396
NVS_NR_hPXR (PXR (NR1I2) [5]): 4.423
CHR_Mouse_Liver_1_AnyLesion (Mouse Liver [1]; chronic study, mouse liver): 6
CHR_Rat_Liver_1_AnyLesion (Rat Liver [6]; chronic study, rat liver): 0
CHR_Rat_Liver_2_PreneoplasticLesion (Rat Liver [7]; chronic study, rat liver): 0
CHR_Rat_Liver_3_NeoplasticLesion (Rat Liver [8]; chronic study, rat liver): 0
ATG_PXRE_CIS (PXR (NR1I2) [9]; HepG2 reporter): 4.328

CCCCN(CC)c1c([N+](=O)[O-])cc(C(F)(F)F)cc1[N+](=O)[O-] [Dataset S3 row 26]
CHR_Mouse_Liver_1_AnyLesion (Mouse Liver [1]; [13]): 6
CHR_Mouse_Liver_2_PreneoplasticLesion (Mouse Liver [2]; [14]): 6
CHR_Mouse_Liver_3_NeoplasticLesion (Mouse Liver [3]; [15]): 6
